Measurements published in ChEMBL document CHEMBL5661943, “ASAP - In vitro antiviral effect” (2024).

How the values were obtained:
Zika virus = test: Functional CPE-based assay to measure dose dependent changes in antiviral-drug inhibitory efficacy against Zika virus MR766 in Vero E6 miRFP670 cells. Cells are treated with antiviral candidates that are serially diluted. EC50 is reported via analysis of MTS assay as a readout of CPE. The assay has been performed by KU Leuven.; assay type: organism-based, Chlorocebus sabaeus, Vero C1008; details: Zika virus
dengue virus type 2 = test: Functional assay to measure dose dependent changes in antiviral-drug inhibitory efficacy against Dengue virus type 2 New Guinea C in Vero E6 miRFP670 cells (cotreated with P-gp inhibitor, CP100356). Cells are treated with antiviral candidates that are serially diluted, following infection, cells are fixed. EC50 is reported via analysis of fluorescence intensity using high-content imager. The …; assay type: organism-based, Chlorocebus sabaeus, Vero C1008; details: Dengue virus

SMILES	EC50 (Zika virus; Vero C1008) [µM]	EC50 (dengue virus type 2; Vero C1008) [µM]	also measured
O=C(Nc1cccc(-c2nnn[nH]2)c1)c1cc(Cl)cc(C2CC2)c1	> 50	> 50	EC90 (Zika virus; Vero C1008, Maximum measured 1.772 %, Minimum measured -2.796 %): > 50 µM; EC90 (dengue virus type 2; Vero C1008, Maximum measured 109.091 %, Minimum measured 105.083 %, P-gp concentration 500 nM, P-gp inhibitor CP100356): > 50 µM
N#C[C@H](Nc1cncc(-c2nn[nH]n2)c1)c1cc(Cl)cc(NC(=O)OCc2ccccc2)c1	> 50		EC90 (Zika virus; Vero C1008, Baseline response 0 %, Hill slope -0.546, Maximum measured 2.599 %, Maximum response 100 %, Minimum measured -1.254 %, R squared 0.412): > 50 µM
CC(C)c1cc(Br)cc(C(=O)Nc2ccc3c(c2)CNC3)c1	> 50		EC90 (Zika virus; Vero C1008, Baseline response 0 %, Hill slope -0.823, Maximum measured 6.311 %, Maximum response 100 %, Minimum measured -3.726 %, R squared 0.279): > 50 µM
NCc1cccc(NC(=O)c2cc(Cl)cc3c2cnn3CC2CC2)c1	> 50	12.4	EC90 (Zika virus; Vero C1008, Baseline response 0 %, Hill slope 0.179, Maximum measured 64.548 %, Maximum response 100 %, Minimum measured -3.549 %, R squared 0.025): > 50 µM; EC90 (dengue virus type 2; Vero C1008): > 12.5 µM
NCc1cccc(NC(=O)[C@@H](NC(=O)OCc2ccccc2)c2ccc(-c3cc4cccnc4s3)cc2)c1	> 50	> 50	EC90 (Zika virus; Vero C1008, Baseline response 0 %, Hill slope 2.61, Maximum measured 41.685 %, Maximum response 100 %, Minimum measured -5.482 %, R squared 0.949): > 50 µM; EC90 (dengue virus type 2; Vero C1008, Baseline response 0 %, Hill slope -1.813, Maximum measured 108.419 %, Maximum response 100 %, Minimum measured 62.17 %, P-gp concentration 500 nM, R squared 0.703, P-gp inhibitor CP100356): > 50 µM
C=CC[C@H](Nc1cc(Cl)cc(NC(=O)OCc2ccccc2)c1)c1ccc(-c2nn[nH]n2)cc1	2.26	< 0.391	EC90 (Zika virus; Vero C1008, Baseline response 0 %, EC90 CI (lower) 3.03 uM, EC90 CI (upper) 8.689 uM, Hill slope 2.685, Maximum measured 114.091 %, Maximum response 100 %, Minimum measured 6.468 %, R squared 0.926): 5.13 µM; EC90 (dengue virus type 2; Vero C1008): 0.683 µM
CCNC(=O)Nc1cc(Cl)cc(C(=O)Nc2ccc3c(c2)CNCCO3)c1	> 50	> 25	EC90 (Zika virus; Vero C1008, Baseline response 0 %, Hill slope 2.475, Maximum measured 7.686 %, Maximum response 100 %, Minimum measured -0.684 %, R squared 0.693): > 50 µM; EC90 (dengue virus type 2; Vero C1008, Maximum measured 150.987 %, Minimum measured 108.938 %, P-gp concentration 500 nM, P-gp inhibitor CP100356): > 25 µM
O=C(Nc1cc(Cl)cc([C@H]2C[C@@H]2c2cccc(C3CCNCC3)c2)c1)OCc1ccccc1	> 50	1.94	EC90 (Zika virus; Vero C1008, Maximum measured 2.266 %, Minimum measured -4.892 %): > 50 µM; EC90 (dengue virus type 2; Vero C1008, Baseline response 0 %, Hill slope -2.737, Maximum measured 87.189 %, Maximum response 100 %, Minimum measured 17.217 %, P-gp concentration 500 nM, R squared 0.653, P-gp inhibitor CP100356): > 3.12 µM
CCNC(=O)Nc1cc(Cl)cc(C(=O)Nc2cccc(CN)c2)c1	> 50	> 50	EC90 (Zika virus; Vero C1008, Baseline response 0 %, Hill slope -0.392, Maximum measured 2.06 %, Maximum response 100 %, Minimum measured -2.343 %, R squared 0.131): > 50 µM; EC90 (dengue virus type 2; Vero C1008, Maximum measured 108.516 %, Minimum measured 107.498 %, P-gp concentration 500 nM, P-gp inhibitor CP100356): > 50 µM
